Measured values taken from patent publication US6057340A, “Oxazole derivatives as serotonin-1A receptor agonists” (American Home Products Corporation, priority 1999, dated 2000).

Target: T1, human 5HT1A receptor (Homo sapiens, UniProt P08908)
T1 construct: expressed in transfected cells
T1 sequence (P08908 1-422): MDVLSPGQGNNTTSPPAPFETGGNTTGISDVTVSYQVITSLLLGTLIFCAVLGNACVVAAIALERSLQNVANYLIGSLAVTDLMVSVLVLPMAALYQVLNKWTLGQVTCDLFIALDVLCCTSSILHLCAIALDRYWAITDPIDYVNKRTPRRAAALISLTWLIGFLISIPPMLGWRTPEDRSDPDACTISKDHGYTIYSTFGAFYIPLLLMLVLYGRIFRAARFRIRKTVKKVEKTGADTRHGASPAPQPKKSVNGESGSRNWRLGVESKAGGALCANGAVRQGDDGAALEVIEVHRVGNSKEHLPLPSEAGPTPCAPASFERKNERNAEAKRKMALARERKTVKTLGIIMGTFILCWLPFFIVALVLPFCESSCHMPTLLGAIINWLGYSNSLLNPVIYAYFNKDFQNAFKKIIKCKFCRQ
Experiment: displacement of [^3 H] 8-OH-DPAT binding in CHO cells stably transfected with human 5HT1A receptor
Conditions: final ligand concentration 1.5 nM, 30 minute incubation at room temperature
Experimental: The compounds of this invention are 5-HT1A agonists. Affinity for the serotonin 5-HT1A receptor was established in a standard pharmacological test procedure which measures the compound's ability to displace [^3 H] 8-OH-DPAT binding in CHO cells stably transfected with human 5HT1A receptor. Stably transfected CHO cells are grown in DMEM containing 10% heat inactivated FBS and non-essential amino acids. Cells are scraped off the plate, transferred to centrifuge tubes, and washed twice by centrifugation (2000 rpm for 10 min., 4° C.) in buffer (50 mM Tris pH 7.5). The resulting pellets are aliquoted and placed at -80° C. On the day of assay, the cells are thawed on ice and resuspended in buffer. The binding assay is performed in a 96 well microtiter plate in a total volume of 250 μL. Non-specific binding is determined in the presence of […], final ligand concentration is 1.5 nM. Following a 30 minute incubation at room temperature, the reaction is terminated by the addition of ice cold buffer and rapid filtration through a GF/B filter presoaked for 30 minutes in 0.5% PEI. Compounds are initially tested in a single point assay to determine percent inhibition at […], and Ki values are determined for the active compounds.

Ki: 4.4 nM
SMILES: COc1ccccc1C1CCN(Cc2oc(C3CCCCC3)nc2Cc2ccccc2)CC1 [Example 9, 1-(4-Benzyl-2-cyclohexyl-oxazol-5-ylmethyl)-4-(2-methoxy-phenyl)-piperidine]
